Measurements: US8815919B2, “Oxadiazole derivatives” (Merck Serono SA, priority 2009, dated 2014)
pEC50: −log10 of the molar value. Counter-ions that a name gives are not always drawn. Like-named read-outs stand apart in the source and are kept apart here.

Experiments:
[1] = target: T1, S1P1 (Homo sapiens, UniProt P21453); experiment: S1P1 internalization assay in S1P1-U2OS cells (S1P1-EGFP), cell imaging; type: cell-based; parameters: host or cells: U2OS (human bone osteosarcoma epithelial cells), CMV promoter, geneticin selection; settings: 1 hour incubation
Experimental: Cellular functional assays: Internalization of Sphingosine-1-phosphate receptor 1 (S1P1) in a human Cell line (U2OS) in a 384-well format using a Cell Imaging analysis. • Jo, E.; Sanna, M. G.; Gonzalez-Cabrera, P. J.; Thangada, S.; Tigyi, S.; Osborne, D. A.; Hla, T.; Parrill, A. L.; Rosen, H. Chem. Biol. 2005, 12, 703
The S1P1 internalization assay was performed in 384 well plates (Corning® 384 black with clear bottom 3712) using S1P1-U2OS cells from Biolmage (C039A), a human epithelial cell line (Human Bone Osteosarcoma Epithelial Cells). These cells expressed the human S1P1 Receptor fused to the green fluorescent protein (EGFP). A standard CMV promoter (cytomegalovirus promoter) controls the expression of S1P1-EGFP and continuous expression was maintained by addition of geneticin to the culture medium.
S1P1 Receptor desensitization induced the internalization of the membrane-localized S1P1-EGFP fusion protein to endosomes, which can be monitored by cell imaging analysis. The cells are plated in low serum medium (Dulbecco's Modified Eagle Medium (DMEM) with Glutamax-1 and high glucose, 1% Penicillin/Streptomycin, 1% Fetal Calf Serum (FCS), 0.5 mg/ml Geneticin) overnight.
The next day, S1P1-U2OS cells are incubated in 20 μl serum free medium (DMEM with Glutamax-1 and high glucose, 0.1% of fatty-acid free Bovin Serum Albumin (BSA), 10 mM, N′-2-Hydroxyethylpiperazine-N′-2 ethanesulphonic acid (HEPES) 1M) for 2 hours at 37° C./5% CO2. The cells are then treated with 4 μl compounds/agonists (6×/3% DMSO) for a total volume of 24 μl, and plates are incubated for 1 hour at 37° C./5% CO2.
S1P1-U2OS cells are fixed with 25 μl Paraformaldehyde 8% and stained with Hoechst 33345 dye (1:1000) for 20 minutes.
They were then washed 3 times with Phosphate Buffered Saline (PBS) and plates are sealed. The internalization of the receptor S1P1-EGFP is measured on Cellomics by calculating the “spot count per object” (“object” corresponds to nuclear and “spot” corresponds to S1P1-EGFP receptor). Internalization data were observed thanks to vHCS View and analyzed using Genedata® software.
Target sequence in this assay (P21453 whole entry): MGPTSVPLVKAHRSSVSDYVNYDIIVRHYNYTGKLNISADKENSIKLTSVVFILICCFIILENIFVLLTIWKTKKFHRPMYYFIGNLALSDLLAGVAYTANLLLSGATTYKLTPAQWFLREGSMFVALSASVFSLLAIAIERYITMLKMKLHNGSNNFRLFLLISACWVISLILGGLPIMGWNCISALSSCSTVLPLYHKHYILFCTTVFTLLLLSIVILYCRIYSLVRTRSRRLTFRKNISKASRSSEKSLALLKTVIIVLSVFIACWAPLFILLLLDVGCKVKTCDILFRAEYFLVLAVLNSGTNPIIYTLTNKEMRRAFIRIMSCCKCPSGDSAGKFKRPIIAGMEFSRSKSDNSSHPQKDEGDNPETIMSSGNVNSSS

[2] = target: S1P3 (Homo sapiens, UniProt Q99500); experiment: Receptor binding assay, [33P]sphingosine 1-phosphate competition, S1P3 membranes, WGA SPA beads
Experimental: (§1) Membranes were prepared from CHO cells expressing S1P1 or S1P3 for use in ligand and […] binding studies. Cells were suspended in 50 mM TRIS, pH 7.4, 2 mM EDTA, 250 mM Sucrose (buffer A) and 1× Complete protease inhibitor cocktail (Roche), and disrupted at 4° C. by N2 decompression using a cell disruption bomb (Parr Instrument). Following centrifugation at 1000 RPM for 10 min at 4° C., the supernatant was diluted (2×) in buffer A and centrifuged again at 19000 RPM for 75 min at 4° C. The pellet was then suspended in 10 mM HEPES, pH 7.4, 1 mM EDTA, 250 mM Sucrose (Buffer B), and 1× Complete EDTA-free protease inhibitor cocktail and homogenized using a potter. Membranes were flash frozen in liquid N2 and stored at −80° C.
(§2) Receptor binding assay: [33P]sphingosine 1-phosphate (3000 Ci/mmol; American Radiolabeled Chemicals, Inc.) was added to test compounds in 20% DMSO by competition. Membranes and WGA SPA beads (GE Healthcare) were added to give a final volume of 100 μl in 96-well plates or 50 μl in 384-well plates with assay concentrations of […] [33P]sphingosine 1-phosphate (respectively for S1P1 or S1P3), 50 mM HEPES, pH 7.5, 5 mM MgCl2, 100 mM NaCl, 0.4% fatty acid-free BSA, 1-5 μg/well of proteins in 96-well plates vs 0.6-1 μg/well of proteins in 384-well plates and 100 μg/well of WGA SPA beads in 96-well plates vs 75 μg/well of WGA SPA beads in 384-well plates. Binding was performed for 60 min at RT on a shaker and bound radioactivity was measured on a PerkinElmer 1450 MicroBeta counter. Triplicate samples were averaged and normalized as percentage of inhibition relative to total binding (only DMSO in well) and nonspecific binding (1000-fold excess of unlabeled S1P). Binding data were analyzed using the GraphPad Prism program or Genedata software.

[3] = target: T1, S1P1; experiment: Receptor binding assay, [33P]sphingosine 1-phosphate competition, S1P1 membranes, WGA SPA beads
Experimental: as §1, §2
Target sequence in this assay (P21453 whole entry, species assumed): as the sequence (P21453 whole entry) above

[4] = 384 well-plate, read-out: S1P3 binding Ki (M) (384 well-plate)
[5] = 384 well-plate, read-out: S1P1 binding Ki (M) (384 well-plate)
[6] = 96 well-plate, read-out: S1P3 binding Ki (M) (96 well-plate)
[7] = 96 well-plate, read-out: S1P1 binding Ki (M) (96 well-plate)

Sequence of S1P3 (Q99500 whole entry, species assumed): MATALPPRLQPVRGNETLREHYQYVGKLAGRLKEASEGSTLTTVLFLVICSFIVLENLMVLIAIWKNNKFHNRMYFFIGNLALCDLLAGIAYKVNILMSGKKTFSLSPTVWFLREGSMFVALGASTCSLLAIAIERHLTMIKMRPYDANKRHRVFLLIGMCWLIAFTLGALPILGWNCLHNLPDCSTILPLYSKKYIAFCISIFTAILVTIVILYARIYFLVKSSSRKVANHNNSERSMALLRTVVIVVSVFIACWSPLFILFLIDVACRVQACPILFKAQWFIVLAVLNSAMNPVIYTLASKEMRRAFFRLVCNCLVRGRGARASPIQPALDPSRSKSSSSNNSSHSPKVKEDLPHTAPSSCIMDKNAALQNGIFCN

Compound	pEC50 [1]	Ki [2, 4] [M]	Ki [3, 5] [M]	Ki [2, 6] [M]	Ki [3, 7] [M]
COCc1cc(-c2nc(-c3ccc(CN(C)CC(=O)O)c(F)c3)no2)ccc1-c1ccccc1Cl [Example 119, N-(4-{5-[2′-chloro-2-(methoxymethyl)biphenyl-4-yl]-1,2,4-oxadiazol-3-yl}-2-fluorobenzyl)-N-methylglycine, hydrochloride salt]	7.94	3.83e-07	9.55e-10	–	–
COC(C)c1cc(-c2nc(-c3ccc(CN(C)CC(=O)O)cc3)no2)ccc1-c1ccccc1C (stereo not drawn) [Example 140, N-(4-{5-[2-(1-methoxyethyl)-2′-methylbiphenyl-4-yl]-1,2,4-oxadiazol-3-yl}benzyl)-N-methylglycine, hydrochloride salt]	8.43	3.89e-07	9.81e-10	1.64e-07	1.89e-10
COCc1cc(-c2nc(-c3ccc(CN(C)CC(=O)O)c(F)c3)no2)ccc1-c1cccc(F)c1Cl [Example 121, N-(4-{5-[2′-chloro-3′-fluoro-2-(methoxymethyl)biphenyl-4-yl]-1,2,4-oxadiazol-3-yl}-2-fluorobenzyl)-N-methylglycine, hydrochloride salt]	8.18	5.26e-07	1.54e-09	–	–
COCc1cc(-c2nc(-c3ccc(CNCC(=O)O)cc3)no2)ccc1-c1ccccc1F [Example 61, N-(4-{5-[2′-fluoro-2-(methoxymethyl)biphenyl-4-yl]-1,2,4-oxadiazol-3-yl}benzyl)glycine, hydrochloride salt]	8.47	–	–	1.91e-07	2.26e-10
COCc1cc(-c2nc(-c3ccc(CN(C)CCC(=O)O)c(F)c3)no2)ccc1-c1ccccc1C [Example 73, N-(2-fluoro-4-{5-[2-(methoxymethyl)-2′-methylbiphenyl-4-yl]-1,2,4-oxadiazol-3-yl}benzyl)-N-methyl-beta-alanine, hydrochloride salt]	8.90	–	–	4.95e-08	1.07e-10
COCc1cc(-c2nc(-c3cccc(CN(CCC(=O)O)C(C)C)c3)no2)ccc1-c1ccccc1C [Example 108, N-isopropyl-N-(3-{5-[2-(methoxymethyl)-2′-methylbiphenyl-4-yl]-1,2,4-oxadiazol-3-yl}benzyl)-beta-alanine, hydrochloride salt]	7.85	1.1e-06	5.06e-10	–	–
Cc1cc(CNCC(=O)O)ccc1-c1noc(-c2ccc(-c3ccccc3C)c(C(F)(F)F)c2)n1 [Example 107, 2-(3-methyl-4-(5-(2′-methyl-2-(trifluoromethyl)biphenyl-4-yl)-1,2,4-oxadiazol-3-yl)benzylamino)acetic acid]	8.55	2.12e-07	4.79e-10	–	–
COCc1cc(-c2nc(-c3ccc(CN(C)CC(=O)O)cc3C)no2)ccc1-c1ccccc1C [Example 102, 2-((4-(5-(2-(methoxymethyl)-2′-methylbiphenyl-4-yl)-1,2,4-oxadiazol-3-yl)-3-methylbenzyl)(methyl)amino)acetic acid]	7.86	6.99e-07	1.44e-09	2.9e-07	–
C[C@@H]1CCCCN1c1ccc(-c2nc(-c3cccc(CN(C)CC(=O)O)c3)no2)cc1C(F)(F)F [Example 45, N-methyl-N-(3-{5-[4-[(2R)-2-methylpiperidin-1-yl]-3-(trifluoromethyl)phenyl]-1,2,4-oxadiazol-3-yl}benzyl)glycine, hydrochloride salt]	7.92	–	–	1.82e-07	5.2e-10
COCc1cc(-c2nc(-c3cccc(CN(CC(=O)O)CC(C)C)c3)no2)ccc1-c1ccccc1C [Example 59, N-isobutyl-N-(3-{5-[2-(methoxymethyl)-2′-methylbiphenyl-4-yl]-1,2,4-oxadiazol-3-yl}benzyl)glycine, hydrochloride salt]	7.13	8.49e-07	7.94e-09	–	1.1e-09
Cc1ccccc1-c1ccc(-c2nc(-c3ccc(CNCCC(=O)O)cc3)no2)cc1C(F)(F)F [Example 84]	8.81	1.73e-07	3.77e-10	1.56e-07	1.43e-10
